Reference: publication PMC8040040 (ACS Medicinal Chemistry Letters, 2021)
“Also recorded” adds a separate entry of the source.

Assays:
RORγt Cys320Ala mutant = target: T1, RORγt Cys320Ala mutant (Homo sapiens, UniProt P51449, C320A); experiment: Ligation to RORγt Cys320Ala mutant, Q-TOF MS; format: binding
T1 sequence (P51449 265-507 C320A): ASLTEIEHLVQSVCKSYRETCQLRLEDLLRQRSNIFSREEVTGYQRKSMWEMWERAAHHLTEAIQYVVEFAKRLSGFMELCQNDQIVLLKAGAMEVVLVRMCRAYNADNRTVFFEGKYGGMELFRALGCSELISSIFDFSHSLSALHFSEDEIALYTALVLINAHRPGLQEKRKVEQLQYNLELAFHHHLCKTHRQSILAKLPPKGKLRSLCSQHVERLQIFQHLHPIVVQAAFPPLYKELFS

RORγt LBD = target: T2, RORγt LBD (Homo sapiens, UniProt P51449); experiment: TR-FRET coactivator recruitment assay, dose-response of covalent probes; format: biochemical; details: TR-FRET dose-response curve plateau
T2 sequence (P51449 265-518): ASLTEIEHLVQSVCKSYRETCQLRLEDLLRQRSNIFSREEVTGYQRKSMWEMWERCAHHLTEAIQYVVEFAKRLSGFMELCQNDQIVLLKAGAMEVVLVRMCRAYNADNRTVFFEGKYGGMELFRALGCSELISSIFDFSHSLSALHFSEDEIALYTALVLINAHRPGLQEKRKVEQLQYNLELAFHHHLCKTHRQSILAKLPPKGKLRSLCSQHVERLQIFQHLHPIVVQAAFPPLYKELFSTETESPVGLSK

[1] = target: T3, ligated RORγt (covalent orthosteric probe at Cys320) (Homo sapiens, UniProt P51449); format: biochemical
T3 sequence (P51449 265-518): T2 sequence (P51449 265-518)

PPARγ = target: T4, PPARγ (Homo sapiens, UniProt P37231); experiment: Ligation; format: binding
T4 sequence (P37231 1-505): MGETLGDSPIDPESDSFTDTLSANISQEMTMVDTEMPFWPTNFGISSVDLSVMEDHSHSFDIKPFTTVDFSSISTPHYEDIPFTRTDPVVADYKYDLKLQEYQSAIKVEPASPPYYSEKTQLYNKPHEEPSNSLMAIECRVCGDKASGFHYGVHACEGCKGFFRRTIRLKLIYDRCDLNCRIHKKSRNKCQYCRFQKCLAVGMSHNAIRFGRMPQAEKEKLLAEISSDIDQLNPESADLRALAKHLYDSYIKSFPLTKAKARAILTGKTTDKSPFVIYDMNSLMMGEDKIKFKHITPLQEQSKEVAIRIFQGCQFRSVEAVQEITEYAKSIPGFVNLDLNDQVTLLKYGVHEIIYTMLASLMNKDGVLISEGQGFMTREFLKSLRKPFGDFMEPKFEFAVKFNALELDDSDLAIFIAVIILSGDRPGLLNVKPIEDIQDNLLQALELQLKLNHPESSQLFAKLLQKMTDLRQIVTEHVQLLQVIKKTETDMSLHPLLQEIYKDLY

| Structure (SMILES) | occlusion of the orthosteric site by the ligated probe [1] | Profile (full/partial inverse agonistic character) (RORγt LBD) | further results |
| --- | --- | --- | --- |
| O=C(Nc1ccccc1)c1cc([N+](=O)[O-])ccc1Cl [Compound 1] | occlusion of the orthosteric binding site |  | Ligation to RORγt Cys320Ala mutant (RORγt Cys320Ala mutant): No ligation; Profile (full/partial inverse agonistic character) (RORγt LBD; listed as 1 GW9662): Full inv. ago.; Profile (full/partial inverse agonistic character) (RORγt LBD; listed as GW9662): full inverse agonist |
| CNC(=O)c1cc([N+](=O)[O-])ccc1Cl [Compound 2] |  |  | Ligation to PPARγ (PPARγ): fully ligate |
| Cc1ccccc1NC(=O)c1cc([N+](=O)[O-])ccc1Cl [Compound 9] | Clear occlusion of the orthosteric site | partial inverse agonistic behavior; also recorded: Partial inv. ago |  |
| O=C(Nc1ccsc1)c1cc([N+](=O)[O-])ccc1Cl [Compound 11] |  | full inverse agonistic behavior; also recorded: Full inv. ago |  |
